US7915276B2, “Berberrubine derivatives having antifungal activities” (priority 2006, dated 2011)

How the values were obtained:
[1] = molecular target: T1, chitin synthase 2 of Saccharomyces cerevisiae ECY38-38A(pAS6) (Saccharomyces cerevisiae, UniProt P14180); test: In vitro enzyme assay for chitin synthase 2 of Saccharomyces cerevisiae (enzyme 2); format: biochemical; details: relative to polyoxin D (50% inhibitory activity = value 5)
T1 construct: made in house; host or cells: Saccharomyces cerevisiae ECY38-38A (chs1-23 chs2::LEU2 cal1/csd2) carrying plasmid pAS6, grown in galactose medium; 130,000 x g membrane pellet
T1 sequence (P14180 whole entry): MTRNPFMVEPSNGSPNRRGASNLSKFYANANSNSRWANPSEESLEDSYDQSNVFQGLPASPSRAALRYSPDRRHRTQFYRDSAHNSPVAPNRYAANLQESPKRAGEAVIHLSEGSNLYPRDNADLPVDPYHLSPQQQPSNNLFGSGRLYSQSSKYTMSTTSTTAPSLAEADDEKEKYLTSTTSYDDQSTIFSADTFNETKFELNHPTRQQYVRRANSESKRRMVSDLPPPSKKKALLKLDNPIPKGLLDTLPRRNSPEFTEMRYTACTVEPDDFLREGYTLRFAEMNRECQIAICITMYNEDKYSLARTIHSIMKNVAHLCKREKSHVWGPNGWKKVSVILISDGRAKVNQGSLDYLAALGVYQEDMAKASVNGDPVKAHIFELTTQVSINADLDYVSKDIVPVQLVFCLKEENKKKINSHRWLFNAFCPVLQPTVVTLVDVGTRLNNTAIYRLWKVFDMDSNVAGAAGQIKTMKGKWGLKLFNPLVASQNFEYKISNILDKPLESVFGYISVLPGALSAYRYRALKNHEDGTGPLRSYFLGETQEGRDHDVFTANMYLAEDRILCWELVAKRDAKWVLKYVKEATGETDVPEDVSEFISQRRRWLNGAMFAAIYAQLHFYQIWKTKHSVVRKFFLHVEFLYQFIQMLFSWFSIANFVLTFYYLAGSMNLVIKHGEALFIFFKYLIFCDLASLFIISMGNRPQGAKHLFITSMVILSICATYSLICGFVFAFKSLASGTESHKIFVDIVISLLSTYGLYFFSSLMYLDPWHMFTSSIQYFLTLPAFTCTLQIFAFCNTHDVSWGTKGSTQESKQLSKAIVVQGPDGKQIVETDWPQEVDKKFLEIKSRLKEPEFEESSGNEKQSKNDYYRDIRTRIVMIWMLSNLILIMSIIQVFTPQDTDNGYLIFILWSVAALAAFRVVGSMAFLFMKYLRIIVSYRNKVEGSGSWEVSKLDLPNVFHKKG
Description: Crude enzyme was prepared using the recombinant Saccharomyces cerevisiae ECY38-38A(pAS6) (MATa chs1-23 chs2::LEU2 cal 1/csd 2 ura 3-52 trp 1-1 leu 2-2 pAS6) strain, which can produce the chitin synthase 2 only. The strain was inoculated with the YPG culture medium (1% yeast extract, 2% peptone, 2% galactose) and cultured at 30° C. overnight. Then, it was inoculated with a fresh YPG culture medium and cultured for 15-17 hours until the Absorbance at 550 nm reaches 1.0. The cells were collected and suspended in 50 mM Tris-HCl (pH 7.5) buffer containing 5 mM magnesium acetate. After centrifugation at 8,000×g for 10 minutes, the pellets were suspended in the same Tris-HCl buffer solution. The suspension was divided into aliquots in 50 mL conical test tubes. After adding the glass beads, the cells were disrupted by vigorously vortexing with an interval of 30 seconds. The cell residues were removed by centrifuging at 3,000×g for 5 minutes. The supernatant was ultra-centrifuged at 130,000×g for 1 hour. The resultant pellets were collected and suspended in 50 mM Tris-HCl (pH 7.5) containing 33% glycerol, to a final volume of 1.6 mg/g (wet weight) of yeast used. The suspension was divided into aliquots and kept at −70° C. until it is used.
(§1) The inhibitory activities against the chitin synthase 1 of Candida albicans chs2 Δ chs 3 Δ (abbreviated as ‘enzyme 1’) and the chitin synthase 2 of Saccharomyces cerevisiae ECY38-38A(pAS6)(abbreviated as ‘enzyme 2’) was examined for compound Nos. 1 to 70 compound and polyoxin D, a positive control compound.
(§2) The inhibitory activity against the chitin synthase 1 prepared from Candida albicans and the chitin synthase 2 prepared from Saccharomyces cerevisiae were examined as follows. A reaction mixture containing 32 mM Tris-HCl (pH 7.5), 2 mM cobalt acetate, 1.1 mM UDP-[U-^14C]-N-acetyl-d-glucosamine (GlcNAc) (400,000 cpm/μmol), 2 μL of trypsin (0.75 mg/mL), 20 μL of each crude enzyme and 14 μL of each test sample was kept at 30° C. for 15 minutes to activate the enzyme. Then, 2 μL of trypsin inhibitor (1.5 mg/mL) was added and the mixture was kept in an ice bath for 10 minutes to deactivate trypsin. 2 μL of 0.8 M N-acetyl-d-glucosamine was added to a total volume of 50 μL and reaction was performed at 30° C. for 90 minutes. The reaction was stopped using 1 mL of 10% TCA solution and the reaction solution was filtered with a GF/C filter and dried at room temperature. After adding 3 mL of a scintillation cocktail solution, the amount of isotopes was measured using a liquid scintillation counter. Percentage inhibition against each enzyme was calculated by the following Equation 1.
(§3) The control group was not added with a test sample in the reaction mixture and that of the untreated group contained neither the test sample nor the crude enzyme.
(§4) A 50% inhibitory activity of polyoxin D against the enzyme was given the value 5. A compound having the same inhibitory activity as that of polyoxin D at the same concentration was given the value 5. Compounds having the inhibitory activity at 2-fold, 4-fold, 8-fold and 16-fold higher concentrations than that of polyoxin D were given the values of 4, 3, 2 and 1, respectively. On the other hand, compounds having the inhibitory activity at ½, ¼ and ⅛ lower concentrations than that of polyoxin D were given the values of 6, 7 and 8, respectively.

[2] = molecular target: T2, chitin synthase 1 of Candida albicans chs2 Δ chs 3 Δ (Candida albicans, UniProt P23316); test: In vitro enzyme assay for chitin synthase 1 of Candida albicans (enzyme 1); format: biochemical; details: relative to polyoxin D (50% inhibitory activity = value 5)
T2 construct: Crude enzyme was prepared using the Candida albicans chs2 Δ chs 3 Δ mutant; endogenous in cells; host or cells: Candida albicans chs2Δ/chs2Δ chs3Δ/chs3Δ mutant; 130,000 x g membrane pellet
T2 sequence (P23316 whole entry, stated change not applied): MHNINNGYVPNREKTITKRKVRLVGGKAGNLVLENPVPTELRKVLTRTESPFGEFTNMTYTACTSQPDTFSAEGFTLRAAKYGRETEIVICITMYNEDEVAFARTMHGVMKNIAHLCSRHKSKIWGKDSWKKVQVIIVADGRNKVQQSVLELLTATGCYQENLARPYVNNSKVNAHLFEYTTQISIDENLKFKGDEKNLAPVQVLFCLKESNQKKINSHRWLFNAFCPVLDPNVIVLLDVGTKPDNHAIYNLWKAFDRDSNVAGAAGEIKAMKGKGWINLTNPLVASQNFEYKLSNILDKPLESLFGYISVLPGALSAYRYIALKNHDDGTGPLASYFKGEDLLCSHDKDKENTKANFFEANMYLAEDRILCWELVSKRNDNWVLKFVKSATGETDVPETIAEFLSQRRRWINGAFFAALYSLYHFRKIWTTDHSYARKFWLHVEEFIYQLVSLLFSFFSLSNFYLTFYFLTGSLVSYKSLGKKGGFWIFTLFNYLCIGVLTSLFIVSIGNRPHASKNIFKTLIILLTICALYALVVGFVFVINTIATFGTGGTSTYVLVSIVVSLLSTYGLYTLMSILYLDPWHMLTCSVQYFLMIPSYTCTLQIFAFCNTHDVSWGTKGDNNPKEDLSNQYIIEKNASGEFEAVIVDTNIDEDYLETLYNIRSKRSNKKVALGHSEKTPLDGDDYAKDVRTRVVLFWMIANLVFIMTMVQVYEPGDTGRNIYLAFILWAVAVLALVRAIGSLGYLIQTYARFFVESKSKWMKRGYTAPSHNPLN
Description: Crude enzyme was prepared using the Candida albicans chs2 Δ chs 3 Δ mutant (chs2 Δ::hisG/chs2 Δ::hisG chs3 Δ::hisG/chs3 Δ::hisG) strain, which can only produce the chitin synthase 1. The strain was inoculated with the SDA (Sabouraud dextrose agar) culture medium (4% dextrose, 1% peptone, pH 5.6) and cultured at 30° C. for 15-17 hours until the absorbance at 550nm reaches 0.7. The cells were collected and suspended in a 50 mM Tris-HCl (pH 7.5) buffer solution containing 5 mM magnesium acetate. After centrifugation at 8,000×g for 10 minutes, the pellets were suspended in the same Tris-HCl buffer solution. The suspension was divided into aliquots in 50 mL conical test tubes. After adding glass beads, the cells were disrupted by vigorously vortexing with an interval of 30 seconds. The cell residues were removed by centrifuging at 3,000×g for 5 minutes. The supernatant was ultra-centrifuged at 130,000×g for 1 hour. The resultant pellets were collected and suspended in 50 mM Tris-HCl (pH 7.5) containing 33% glycerol, to a final volume of 1.6 mg/g (wet weight) of yeast used. The suspension was divided into aliquots and kept at −70° C. until it is used.
as §1, §2, §3, §4

Compound	Relative activity Enzyme 2 [1]	Relative activity Enzyme 1 [2]
13-(4-Trifluoromethoxybenzyl)-9-O-butylberberrubine chloride [Compound No. 65]	6 (compounds having the inhibitory activity at ½, ¼ and ⅛ lower concentrations than that of polyoxin D were given the values of 6, 7 and 8, respectively)	3 (Compounds having the inhibitory activity at 2-fold, 4-fold, 8-fold and 16-fold higher concentrations than that of polyoxin D were given the values of 4, 3, 2 and 1, respectively)
COc1cc(Cc2c3[n+](cc4c(OCc5ccc(C(C)(C)C)cc5)c(OC)ccc24)CCc2cc4c(cc2-3)OCO4)cc(OC)c1OC.[Br-] [Compound No. 32, 13-(3,4,5-Trimethoxybenzyl)-9-O-(4-tert-butylbenzyl)berberrubine bromide]	4 (Compounds having the inhibitory activity at 2-fold, 4-fold, 8-fold and 16-fold higher concentrations than that of polyoxin D were given the values of 4, 3, 2 and 1, respectively)	2 (Compounds having the inhibitory activity at 2-fold, 4-fold, 8-fold and 16-fold higher concentrations than that of polyoxin D were given the values of 4, 3, 2 and 1, respectively)
13-(4-Trifluoromethoxybenzyl)-9-O-hexylberberrubine chloride [Compound No. 66]	5 (A compound having the same inhibitory activity as that of polyoxin D at the same concentration was given the value 5)	2 (Compounds having the inhibitory activity at 2-fold, 4-fold, 8-fold and 16-fold higher concentrations than that of polyoxin D were given the values of 4, 3, 2 and 1, respectively)
13-(4-Trifluoromethoxybenzyl)-9-O-hexylberberrubine iodide [Compound No. 34]	5 (A compound having the same inhibitory activity as that of polyoxin D at the same concentration was given the value 5)	2 (Compounds having the inhibitory activity at 2-fold, 4-fold, 8-fold and 16-fold higher concentrations than that of polyoxin D were given the values of 4, 3, 2 and 1, respectively)
13-(4-Isopropylbenzyl)berberrubine [Compound No. 6]	4 (Compounds having the inhibitory activity at 2-fold, 4-fold, 8-fold and 16-fold higher concentrations than that of polyoxin D were given the values of 4, 3, 2 and 1, respectively)	2 (Compounds having the inhibitory activity at 2-fold, 4-fold, 8-fold and 16-fold higher concentrations than that of polyoxin D were given the values of 4, 3, 2 and 1, respectively)
